How the values were obtained:
[1] = target: T1, human melatonin 1 receptors (human MT1 receptors) (Homo sapiens, UniProt P48039); experiment: Melatonin receptor binding inhibitory test, 2-[125I] Iodomelatonin, MT1; conditions: membrane fraction of CHO-hMelR7 cells, 25° C. for 2.5 hr, read-out: binding inhibitory activity as IC50 value for MT1
T1 construct: expressed in transfected cells; membrane fraction
Experimental: (§1) Melatonin Receptor Binding Inhibitory Test
(1) Preparation of CHO-hMelR7 Cells expressing Human Melatonin 1 Receptors
A cDNA fragment (SEQ ID NO: 1) encoding full-length of human melatonin 1 receptors (human MT1 receptors) was incorporated into expression vector pAKKO-111H (former name pAKKO1.11H; Biochim Biophys Acta. Vol. 1219(2), pp. 251-259, 1994) to give plasmid pAKKO-hMelR7 for animal cell expression. CHO/dhfr-cells (ATCC, #CRL-9096) were plated at a concentration of 0.3×10^6 cells/dish in a 6 cm culture dish (Becton Dickinson), and cultured under the conditions of 37° C., 5% CO2 for 48 hr. The cells were transfected with pAKKO-hMelR7 plasmid DNA (5 μg) using Cellphect Transfection Kit (Amersham, #27-9268-01). The transfected cells were cultured in Dulbecco's modified Eagle medium (DMEM) (Sigma, #D6046) containing 10% dialyzed FBS (Biowest, #S180D), 1× Non-Essential Amino Acid (Invitrogen, #11140-050) and 50 μg/mL Gentamycin (Invitrogen, #15750-060), and the cell line that stably expressed the plasmid gene was selected. By a receptor binding assay using 2-[^125I] Iodomelatonin, CHO-hMelR7 cell line showing specific binding of 2-[^125I] Iodomelatonin was selected from the obtained clones.
(§2) (3) Preparation of Cellular Membrane Fraction of CHO Cell (CHO-hMelR7 and CHO-hMT2) Stably Expressing Human MT1 and MT2 Receptors
(§3) CHO-hMelR7 and CHO-hMT2 cells were plated using Cellfactory (Nunc, #170009) under the conditions of 1×10^8 cells/2000 mL/flask. The cells were grown to confluent, and recovered by the following method. As the medium for CHO-hMelR7 and CHO-hMT2, MEM a containing 10% FBS and penicillin/streptomycin was used. […]
(§4) The medium was discarded, cells were washed twice with 200 mL of EDTA/PBS(−), 200 mL of EDTA/PBS(−) was further added, and the cells were stood still at room temperature for 20 min until they were released. The cells were recovered in four 50 mL tubes (Becton Dickinson, #352070), and centrifuged at 1,500 rpm for 10 min at 4° C. using a low speed cooling centrifuge (Hitachi, CF7D2). The supernatant was discarded, the pellets in the four tubes were suspended in 10 mL of PBS(−), and combined in one tube (Becton Dickinson, #352070). The mixture was further centrifuged at 1,500 rpm for 10 min at 4° C., and the obtained pellets were suspended in 20 mL of ice-cooled homogenizing buffer [10 mM NaHCO3, 5 mM EDTA, Protease inhibitor Complete (Roche), pH 7.4]. The cell suspension was homogenized 3 times using a polytron homogenizer at 20,000 rpm for 30 sec. The obtained homogenate was centrifuged (2,000 rpm, 10 min, 4° C.) using a low speed cooling centrifuge. The supernatant was recovered in an ultracentrifugation tube and ultracentrifuged (40,000 rpm, 60 min, 4° C.) using an ultracentrifuge (Beckman, L-90K). To the obtained pellets was added a suspending buffer [50 mM Tris-HCl, 1 mM EDTA, Protease inhibitor Complete (Roche), pH 7.4], and the pellets were suspended by pipetting. The protein concentration of this suspension was measured, diluted to 2 mg/mL to give cellular membrane fractions of CHO-hMelR7 and CHO-hMT2 cells. The membrane fractions were dispensed to 1.5 mL tubes (Eppendorf, #0030120.086) by 100 μL, preserved in a freezer (−80° C.) and used for a binding assay. Protein was quantified using BCA protein assay kit (Pierce) with BSA as the standard.
(§5) (4) Preparation of Membrane Fraction Suspension
(§6) Immediately before use, the membrane fractions of CHO-hMelR7 and CHO-hMT2 cells of the above-mentioned (3) were diluted 20-fold with assay buffer (50 mM Tris-HCl, pH 7.7).
(§7) (5) Preparation of 2-[^125I] Iodomelatonin Solution
(§8) 2-[^125I] Iodomelatonin (#NEX236, PerkinElmer) was diluted with the assay buffer to 400 pM for MT1 and 1 nM for MT2.
The assay buffer (80 μL) of the above-mentioned (4) was added to each well of a 96-well plate (type 3363, Corning). Then, a test compound (compound solution diluted with DMSO to 200-fold of the final measurement concentration) was added by 2 μL. […]

[2] = target: T2, human melatonin 2 receptors (human MT2 receptors) (Homo sapiens, UniProt P49286); experiment: Melatonin receptor binding inhibitory test, 2-[125I] Iodomelatonin, MT2; conditions: membrane fraction of CHO-hMT2 cells, 25° C. for 2.5 hr, read-out: binding inhibitory activity as IC50 value for MT2
T2 construct: expressed in transfected cells; membrane fraction
T2 sequence (P49286 1-362): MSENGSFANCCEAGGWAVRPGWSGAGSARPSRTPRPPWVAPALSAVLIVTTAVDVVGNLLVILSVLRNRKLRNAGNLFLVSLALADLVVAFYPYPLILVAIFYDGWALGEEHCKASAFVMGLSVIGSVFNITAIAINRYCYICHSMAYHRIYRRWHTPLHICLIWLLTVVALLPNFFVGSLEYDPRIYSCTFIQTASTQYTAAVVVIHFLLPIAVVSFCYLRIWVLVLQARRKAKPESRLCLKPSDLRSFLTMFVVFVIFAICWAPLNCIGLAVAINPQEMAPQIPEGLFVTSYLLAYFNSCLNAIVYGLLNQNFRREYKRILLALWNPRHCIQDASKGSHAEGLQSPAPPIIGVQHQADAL
Experimental: as §1
(2) Preparation of CHO-hMT2 Cells Expressing Human Melatonin 2 Receptors
A cDNA fragment (SEQ ID NO: 2) encoding full-length of human melatonin 2 receptors (human MT2 receptors) was incorporated into expression vector pCMV-Script (Stratagene, #212220) to give the plasmid that was pCMV-human MT2 receptors expression vector for animal cell expression. CHO-K1 cells (ATCC, #CCL-61) were plated at the concentration of 1.5×10^5 cells/cm^2 in a 6 well plate (ASAHI TECHNO GLASS), and cultured under the conditions of 37° C., 5% CO2 for 24 hr. For gene transfection, solution obtained by blending pCMV-human MT2 receptors expression vector (1.9 μg), Lipofectamine Transfection Reagent (Invitrogen, #18324-012) (11.3 μL) and Minimum Essential Medium Eagle (MEM) medium (Sigma, M8042) (93.8 μL), and reacting at room temperature for 20 min was added to the cells per one well. The transfected cells were cultured in MEM medium containing 10% FBS (Life Technology) and 300 μg/mL Geneticin (GIBCO, #10131), and the cell line that stably expressed the plasmid gene was selected. By a receptor binding assay using 2-[^125I] Iodomelatonin, CHO-hMT2 cell line showing specific binding of 2-[^125I] Iodomelatonin was selected from the obtained clones.
as §2, §3, §4, §5, §6, §7, §8
The assay buffer (80 μL) of the above-mentioned (4) was added to each well of a 96-well plate (type 3363, Corning). […]

T1 sequence (P48039 whole entry): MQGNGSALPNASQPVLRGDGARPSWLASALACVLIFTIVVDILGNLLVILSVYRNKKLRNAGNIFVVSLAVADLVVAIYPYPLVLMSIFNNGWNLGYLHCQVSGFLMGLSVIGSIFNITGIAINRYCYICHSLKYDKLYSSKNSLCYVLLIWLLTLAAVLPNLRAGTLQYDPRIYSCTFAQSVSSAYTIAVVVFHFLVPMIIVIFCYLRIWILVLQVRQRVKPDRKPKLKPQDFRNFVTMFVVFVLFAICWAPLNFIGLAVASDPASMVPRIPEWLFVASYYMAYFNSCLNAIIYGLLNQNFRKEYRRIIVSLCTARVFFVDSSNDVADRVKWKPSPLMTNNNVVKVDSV

Structure (SMILES)	IC50 [1]	IC50 [2]	melting point
CC(=O)NC[C@H]1C[C@@H]1c1cccn2nc(C)cc12 [Example 43, N-{[(1S,2S)-2-(2-methylpyrazolo[1,5-a]pyridin-4-yl)cyclopropyl]methyl}acetamide]	≤ 0.1 µM	≤ 0.1 µM	69 to 70 °C
CC(=O)NC[C@@H]1C[C@H]1c1cccn2nc(C)cc12 [Example 44, N-{[(1R,2R)-2-(2-methylpyrazolo[1,5-a]pyridin-4-yl)cyclopropyl]methyl}acetamide]	≤ 0.1 µM	≤ 0.1 µM	100 to 101 °C
Cc1cc2c([C@H]3C[C@@H]3CNC(=O)C3CC3)cccn2n1 [Example 48, N-{[(1S,2S)-2-(2-methylpyrazolo[1,5-a]pyridin-4-yl)cyclopropyl]methyl}cyclopropanecarboxamide]	≤ 0.1 µM	≤ 0.1 µM	124 to 128 °C
Cc1cc2c([C@@H]3C[C@H]3CNC(=O)C3CC3)cccn2n1 [Example 49, N-{[(1R,2R)-2-(2-methylpyrazolo[1,5-a]pyridin-4-yl)cyclopropyl]methyl}cyclopropanecarboxamide]	≤ 0.1 µM	≤ 0.1 µM	127 to 129 °C
CC(=O)NCC1CC1c1cccc2nc(C)cn12 (stereo not drawn) [Example 52, N-{[2-(2-methylimidazo[1,2-a]pyridin-5-yl)cyclopropyl]methyl}acetamide]	≤ 0.1 µM	≤ 0.1 µM	170 to 171 °C
CCC(=O)NCC1CC1c1cccc2nc(C)cn12 (stereo not drawn) [Example 53, N-{[2-(2-methylimidazo[1,2-a]pyridin-5-yl)cyclopropyl]methyl}propanamide]	≤ 0.1 µM	≤ 0.1 µM	88 to 90 °C
CC(=O)NCC1CC1c1cccc2nc(C)nn12 (stereo not drawn) [Example 56, N-{[2-(2-methyl[1,2,4]triazolo[1,5-a]pyridin-5-yl)cyclopropyl]methyl}acetamide]	≤ 0.1 µM	≤ 0.1 µM	124 to 126 °C
CCC(=O)NCC1CC1c1cccc2nc(C)nn12 (stereo not drawn) [Example 57, N-{[2-(2-methyl[1,2,4]triazolo[1,5-a]pyridin-5-yl)cyclopropyl]methyl}propanamide]	≤ 0.1 µM	≤ 0.1 µM	118 to 119 °C
CC(=O)NCC1CC1c1cccc2nc(C)sc12 (stereo not drawn) [Example 58, N-{[2-(2-methyl-1,3-benzothiazol-7-yl)cyclopropyl]methyl}acetamide]	≤ 0.1 µM	≤ 0.1 µM	96 to 98 °C
CCC(=O)NCC1CC1c1cccc2nc(C)sc12 (stereo not drawn) [Example 59, N-{[2-(2-methyl-1,3-benzothiazol-7-yl)cyclopropyl]methyl}propanamide]	≤ 0.1 µM	≤ 0.1 µM	59 to 61 °C
CC(=O)NCC1CC1c1cccc2nnsc12 (stereo not drawn) [Example 60, N-{[2-(1,2,3-benzothiadiazol-7-yl)cyclopropyl]methyl}acetamide]	≤ 0.1 µM	≤ 0.1 µM	81 to 82 °C
CCC(=O)NCC1CC1c1cccc2nnsc12 (stereo not drawn) [Example 61, N-{[2-(1,2,3-benzothiadiazol-7-yl)cyclopropyl]methyl}propanamide]	≤ 0.1 µM	≤ 0.1 µM	67 to 69 °C
CC(=O)NCC1CC1c1cccc2nscc12 (stereo not drawn) [Example 62, N-{[2-(2,1-benzisothiazol-4-yl)cyclopropyl]methyl}acetamide]	≤ 0.1 µM	≤ 0.1 µM	96 to 97 °C

The remaining lines, values ahead:

IC50 [1]	IC50 [2]	melting point	Structure (SMILES)
≤ 0.1 µM	≤ 0.1 µM	102 to 103 °C	CC(=O)NCC1CC1c1c(C2CC2)ccc2nn(C)cc12 (stereo not drawn) [Example 33, N-{[2-(5-cyclopropyl-2-methyl-2H-indazol-4-yl)cyclopropyl]methyl}acetamide]
≤ 0.1 µM	≤ 0.1 µM	156 to 158 °C	CC(=O)NCC1CC1c1c(-c2ccccc2)ccc2nn(C)cc12 (stereo not drawn) [Example 34, N-{[2-(2-methyl-5-phenyl-2H-indazol-4-yl)cyclopropyl]methyl}acetamide]
≤ 0.1 µM	≤ 0.1 µM	136 to 138 °C	CC(=O)NCC1CC1c1c(-c2cccnc2)ccc2nn(C)cc12 (stereo not drawn) [Example 35, N-{[2-(2-methyl-5-pyridin-3-yl-2H-indazol-4-yl)cyclopropyl]methyl}acetamide]
≤ 0.1 µM	≤ 0.1 µM	189 to 192 °C	CC(=O)NCC1CC1c1c(C#N)ccc2nn(C)cc12 (stereo not drawn) [Example 36, N-{[2-(5-cyano-2-methyl-2H-indazol-4-yl)cyclopropyl]methyl}acetamide]
≤ 0.1 µM	≤ 0.1 µM	104 to 105 °C	COc1ccc2nn(C)cc2c1C1CC1CNC(C)=O (stereo not drawn) [Example 37, N-{[2-(5-methoxy-2-methyl-2H-indazol-4-yl)cyclopropyl]methyl}acetamide]
≤ 0.1 µM	≤ 0.1 µM	147 to 148 °C	CC(=O)NCC1CC1c1ccc(F)c2nn(C)cc12 (stereo not drawn) [Example 38, N-{[2-(7-fluoro-2-methyl-2H-indazol-4-yl)cyclopropyl]methyl}acetamide]
≤ 0.1 µM	≤ 0.1 µM	153 to 155 °C	CC(=O)NCC1CC1c1ccc(Cl)c2nn(C)cc12 (stereo not drawn) [Example 39, N-{[2-(7-chloro-2-methyl-2H-indazol-4-yl)cyclopropyl]methyl}acetamide]

— patent US8110585B2, “Bicyclic compound and pharmaceutical use thereof” (Takeda Pharmaceutical Company Limited, priority 2007, dated 2012)
